Like-named read-outs stand apart in the source and are kept apart here.
What was measured:
[1] = test system: upcyte hepatocytes 653-03 2D6; experiment: Tam metabolism in upcyte hepatocytes 653-03 2D6, metabolites in culture medium; type: in vitro ADME, human; settings: cells incubated with 1 µM Tam up to 144 h; for concentration in the culture medium: 653-03 2D6
Description: (§1) The medium was replaced every 2–3 days. […].
(§2) The culture medium was collected after 24, 48, 72, 96 and 144 h followed by metabolite measurements using HPLC-ESI-MS/MS.
(§3) Protein was precipitated by the addition of ACN containing 1% of acetic acid and the corresponding deuterated internal standards to the same volume of the sample followed by centrifugation at 20.000 g for 15 min at RT. […] Analytes were separated on a Zorbax Eclipse Plus C18 column (1.8 µm, 100 × 2.1 mm, Agilent technologies) and detected on a 6460 triple quadrupole mass spectrometer (Agilent technologies) in positive ESI MRM mode. Glucuronides of estrogen-like metabolites were detected separately via MS/MS-measurements in negative ESI MRM mode.
(§4) […]. […] […].

CYP2C8 [2] = target: T1, CYP2C8 (Homo sapiens, UniProt P10632); experiment: Inhibition of CYP2C8 activity in HLM; type: in vitro ADME; settings: 200 nM to 10 µM, 10 min pre-incubation
T1 sequence (P10632 1-490): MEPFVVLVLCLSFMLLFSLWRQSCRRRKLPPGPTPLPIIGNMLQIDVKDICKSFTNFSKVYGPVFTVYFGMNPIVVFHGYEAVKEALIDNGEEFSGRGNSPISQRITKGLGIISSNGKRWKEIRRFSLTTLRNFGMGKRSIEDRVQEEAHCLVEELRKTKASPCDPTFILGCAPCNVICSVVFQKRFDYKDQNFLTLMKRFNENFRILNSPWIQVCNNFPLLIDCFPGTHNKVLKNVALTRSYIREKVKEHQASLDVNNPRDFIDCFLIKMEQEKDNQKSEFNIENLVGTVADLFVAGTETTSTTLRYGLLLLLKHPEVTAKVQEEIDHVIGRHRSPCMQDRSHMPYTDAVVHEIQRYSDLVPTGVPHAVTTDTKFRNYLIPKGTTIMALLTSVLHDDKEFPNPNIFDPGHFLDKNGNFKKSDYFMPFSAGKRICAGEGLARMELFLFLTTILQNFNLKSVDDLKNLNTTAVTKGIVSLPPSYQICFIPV

CYP2C9 [3] = target: T2, CYP2C9 (Homo sapiens, UniProt P11712); experiment: Inhibition of CYP2C9 activity in HLM; type: in vitro ADME; settings: 200 nM to 10 µM, 10 min pre-incubation
T2 sequence (P11712 whole entry): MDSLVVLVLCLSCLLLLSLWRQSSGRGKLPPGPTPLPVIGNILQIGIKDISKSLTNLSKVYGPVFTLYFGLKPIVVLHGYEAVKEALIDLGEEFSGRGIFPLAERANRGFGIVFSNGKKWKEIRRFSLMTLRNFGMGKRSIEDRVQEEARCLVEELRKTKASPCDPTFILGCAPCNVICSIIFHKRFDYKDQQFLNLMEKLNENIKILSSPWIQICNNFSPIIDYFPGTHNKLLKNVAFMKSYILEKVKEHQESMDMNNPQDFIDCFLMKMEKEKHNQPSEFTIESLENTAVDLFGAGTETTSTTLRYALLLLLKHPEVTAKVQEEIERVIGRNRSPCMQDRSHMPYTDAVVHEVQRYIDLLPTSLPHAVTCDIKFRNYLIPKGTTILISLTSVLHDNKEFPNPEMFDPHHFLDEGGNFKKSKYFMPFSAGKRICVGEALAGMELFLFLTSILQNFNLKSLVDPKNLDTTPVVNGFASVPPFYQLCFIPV

CYP2C19 [4] = target: T3, CYP2C19 (Homo sapiens, UniProt P33261); experiment: Inhibition of CYP2C19 activity in HLM; type: in vitro ADME; settings: 200 nM to 10 µM, 10 min pre-incubation
T3 sequence (P33261 whole entry): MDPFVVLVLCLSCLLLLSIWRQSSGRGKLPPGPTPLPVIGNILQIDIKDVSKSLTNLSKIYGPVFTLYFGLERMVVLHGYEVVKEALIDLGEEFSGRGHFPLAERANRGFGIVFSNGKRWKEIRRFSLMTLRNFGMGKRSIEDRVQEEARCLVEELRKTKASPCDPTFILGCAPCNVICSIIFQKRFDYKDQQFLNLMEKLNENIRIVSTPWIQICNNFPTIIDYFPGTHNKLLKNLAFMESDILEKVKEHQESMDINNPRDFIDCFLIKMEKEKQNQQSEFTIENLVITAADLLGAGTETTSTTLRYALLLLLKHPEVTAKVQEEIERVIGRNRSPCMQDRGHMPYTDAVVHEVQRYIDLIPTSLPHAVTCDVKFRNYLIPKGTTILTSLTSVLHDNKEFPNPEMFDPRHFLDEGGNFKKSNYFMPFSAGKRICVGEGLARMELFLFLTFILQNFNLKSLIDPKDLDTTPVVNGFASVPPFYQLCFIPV

CYP1A1 gene expression = CYP1A1 gene expression in upcyte hepatocytes (Fluidigm RT-PCR); type: cell-based, human; settings: 5 µM, 72 h, both cell strains
Source text: Differences between induced and control samples were compared using Welch’s t-test (GraphPad Prism, version 5.04), when the fold-change was considered biologically relevant (1.5-fold increase or decrease in fold-changes) and corrected for multiple testing according to Bonferroni. […] An unpaired t-test assuming unequal variances was used for testing of differences in the expression patterns, when the fold-change was considered biologically relevant (1.5-fold increase or decrease in fold-changes) and corrected using Bonferroni adjustments.

CYP2C8 [5] = target: T1, CYP2C8; experiment: CYP2C8 activity in upcyte hepatocytes after treatment (probe substrate cocktail); type: cell-based; parameters: host or cells: upcyte hepatocytes 653-03 and 653-03 #138 (653-03 2D6); settings: for inhibition at 72 h, 5 µM: human, upcyte hepatocytes 653-03 and 653-03 2D6, probe amodiaquine 5 µM, both cell lines
Description: (§5) Cells were cultivated in hepatocyte culture medium at 37 °C and 5 °% CO2 in a humidified incubator. Before starting experiments, cells were cultivated in hepatocyte culture medium containing 0.5% (v/v) DMSO (Preculture medium) for 5 days (density of 0.8 × 10^4 cells/cm^2) and were subcultivated in high-performance medium containing 0.1% (v/v) DMSO (Metabolism conditioning medium) for 3–5 days (density of 1.6 × 10^5 cells/cm^2, confluence). The medium was replaced every 2–3 days.
(§6) In HLM and supersome™ incubations the formation rate is given as nmol µg^−1 min^−1 and fmol pmol^−1 min^−1, respectively, and was calculated as the mean ± SD. […] The intrinsic Clearance (Clint) was given as Vmax/Km ratio. […] Activity of CYP enzymes in induction assays is given as the fold-change (mean ± SD) compared to the corresponding DMSO-treated control. […] Gene expression patterns of treated cells are given as fold-change compared to the corresponding DMSO-treated control samples, as described above. […] In induction and inhibition experiments corresponding EC50 and IC50 values were calculated by nonlinear regression. In all experiments a level of probability (p) ≤ 0.05 for statistical testing was considered significant.
(§7) As control 0.05 % DMSO was used. The basal CYP activity and induction of CYP activity compared to the DMSO control were measured via HPLC-ESI-MS/MS.

CYP2C9 [6] = target: T2, CYP2C9; experiment: CYP2C9 activity in upcyte hepatocytes after treatment (probe substrate cocktail); type: cell-based; parameters: host or cells: upcyte hepatocytes 653-03 and 653-03 #138 (653-03 2D6); settings: human; for inhibition at 72 h, 5 µM: probe tolbutamide 100 µM
Description: as §5, §6, §7

CYP2C19 [7] = target: T3, CYP2C19; experiment: CYP2C19 activity in upcyte hepatocytes after treatment (probe substrate cocktail); type: cell-based; parameters: host or cells: upcyte hepatocytes 653-03 and 653-03 #138 (653-03 2D6)
Description: as §5, §6, §7

[8] = Formation kinetics of Tam-Bis, (Z)- and (E)-Met E in HLM with increasing substrate concentrations; type: in vitro ADME, human; settings: substrate 1 to 50 µM, Michaelis-Menten
Description: The reaction was started by adding a NADPH regenerating system (5 mM MgCl2, 5 mM glucose-6-phosphate, 0.5 mM NADP^+ and 10 U glucose-6-phosphate-dehydrogenase in 100 mM sodium phosphate buffer pH 7.4) to the samples and immediately put in a 37 °C water bath for 30 min. The reaction was stopped with the same volume of acetonitrile (ACN) containing 1% of acetic acid together with the corresponding deuterated internal standards. Regarding incubations with Supersomes™ containing UGTs, 5 µg of protein was incubated with 250 mM MgCl2 and 2.5 ng of alamethicin for 30 min on ice, followed by 10 min at 37 °C in a water bath. Subsequently, the Supersomes™ were incubated with 10 µM of substrates (Tam-Bis, (E)- and (Z)-Met E) and the glucuronidation was started by addition of 10 mM of uridine 5′-diphospho-glucuronic acid to the samples in a water bath at 37 °C for 30 min. The reaction was stopped as described above. Metabolites were analyzed by HPLC-ESI-MS/MS.
For the assessment of formation kinetics of Tam-Bis, (E)- and (Z)-Metabolite E, HLM were incubated with increasing substrate concentrations ranging from 1 to 50 µM as described above. As control for each concentration a sample without NADPH-regenerating system was prepared. […]

[9] = test system: upcyte hepatocytes 653-03 and 653-03 2D6; experiment: Tam metabolism in upcyte hepatocytes, cell strain not distinguished; type: in vitro ADME, human; settings: cells incubated with 1 µM Tam; highest concentration, decreased over time
Description: as §1, §2, §3, §4

CYP1A2 = CYP1A2 activity in upcyte hepatocytes after treatment (probe substrate cocktail); settings: read-out: EC50 of induction of CYP1A2 activity, 72 h, 50 pM to 5 µM
Description: as §5, §6, §7

CYP2B6 = CYP2B6 activity in upcyte hepatocytes after treatment (probe substrate cocktail); settings: read-out: EC50 of induction of CYP2B6 activity; upcyte hepatocytes, 72 h, 50 pM to 5 µM
Description: as §5, §6, §7

CYP3A4 = CYP3A4 activity in upcyte hepatocytes after treatment (probe substrate cocktail); settings: 72 h
Description: as §5, §6, §7

estrogen receptor = test system: estrogen receptor; parameters: method as in Johnson et al. [1989]; Murphy et al. [1990]; settings: in vitro, estrogen-dependent breast cancer cell lines; ref Johnson et al. [1989]; Murphy et al. [1990]; cited from earlier work
[10] = test system: CYP1A2, 2C19, 2C9, 2B6, 3A4 and 2C8; experiment: CYP activity in upcyte hepatocytes after treatment, all tested CYP isoenzymes together; type: cell-based, human
Description: as §5, §6

[11] = test system: upcyte hepatocytes 653-03; experiment: Tam metabolism in upcyte hepatocytes 653-03 (parental), metabolites in culture medium; type: in vitro ADME, human; settings: cells incubated with 1 µM Tam up to 144 h, parental 653-03
Description: as §1, §2, §3, §4

[12] = read-out: Km, (E)-Met E formation
[13] = read-out: Km, (Z)-Met E formation

SMILES: CC/C(=C(\c1ccc(O)cc1)c1ccc(OCCNC)cc1)c1ccccc1 [Endox, (Z)-endoxifen]
- concentration in the culture medium [1]: up to 11 nM
- IC50 (CYP2C8 [2]): 8.1 µM
- IC50 (CYP2C9 [3]): > 10 µM
- IC50 of CYP2C9 activity (CYP2C9 [3]): weakly inhibited
- IC50 at 15 min (CYP2C19 [4]; human, human liver microsomes): > 10 µM
- CYP1A1 gene expression, induction vs DMSO control (CYP1A1 gene expression): up to 2.3 fold
- inhibition at 72 h, 5 µM (CYP2C8 [5]): ≤ 90%
- inhibition at 72 h, 5 µM (CYP2C9 [6]): 63%

SMILES: CC/C(=C(\c1ccc(O)cc1)c1ccc(OCCN)cc1)c1ccccc1 [Norendox, N-didesmethyl-4-hydroxytamoxifen]
- IC50 (CYP2C8 [2]): 2.4 µM
- IC50 (CYP2C9 [3]): 0.21 µM
- IC50 (CYP2C19 [4]): 0.32 µM
- inhibition at 72 h, 5 µM (CYP2C8 [5]): 62.5%
- inhibition at 72 h, 5 µM (CYP2C9 [6]): 93%
- inhibition at 72 h, 5 µM (CYP2C19 [7]; human, probe S-mephenytoin 100 µM, 5 µM): ≤ 70%

SMILES: CC/C(=C(\c1ccccc1)c1ccc(OCCN(C)C)cc1)c1ccccc1 [Tam, Tamoxifen, reference compound]
- V max, (E)-Met E formation [8]: 0.57 pmol/mg/min
- V max, (Z)-Met E formation [8]: 9.2 pmol/mg/min
- Km [8, 12]: 11.5 µM
- Km [8, 13]: 82.3 µM

SMILES: CCC(=C(c1ccccc1)c1ccc(O)cc1)c1ccccc1 [(Z)-Met E, 4-[1,2-diphenylbut-1-en-1-yl]phenol]
- V max, Bisphenol formation [8]: 17.2 pmol/mg/min
- Km ([8]; read-out: Km, Bisphenol formation): 8.2 µM
- concentration in the supernatant of the cells [9]: up to 440 pM
- EC50 (CYP1A2): > 5 µM
- EC50 (CYP2B6): > 5 µM
- induction of CYP3A4 activity compared to DMSO control (CYP3A4; 5 µM, parental and derived cell line): weakly induced
- EC50 (CYP3A4; read-out: EC50 of induction of CYP3A4 activity, upcyte hepatocytes, 50 pM to 5 µM): 0.308 µM
- CYP1A1 gene expression, induction vs DMSO control (CYP1A1 gene expression): 3.3 fold
- agonism regarding estrogen-regulated mRNA expression (estrogen receptor): full agonists
- EC50 (CYP2C8 [5]; upcyte hepatocytes, 72 h, 50 pM to 5 µM, read-out: EC50 of induction of CYP2C8 activity): > 5 µM
- EC50 at 72 h (CYP2C9 [6]; probe tolbutamide (100 µM), upcyte hepatocytes, 50 pM to 5 µM, read-out: EC50 of induction of CYP2C9 activity): > 5 µM
- EC50 (CYP2C19 [7]; upcyte hepatocytes, 72 h, 50 pM to 5 µM, read-out: EC50 of induction of CYP2C19 activity): > 5 µM

SMILES: C[C@]12CC[C@@H]3c4ccc(O)cc4CC[C@H]3[C@@H]1CC[C@@H]2O [estradiol, reference compound]
- impact on CYP activities ([10]; 500 nM, 3 days): did not have an impact

SMILES: CC/C(=C(/c1ccc(OCCN(C)C)cc1)c1ccc(O[C@@H]2O[C@H](C(=O)O)[C@@H](O)[C@H](O)[C@H]2O)cc1)c1ccccc1 [4OH-Tam-glucuronide, tamoxifen-4-O-glucuronide]
- concentration in the supernatant of 653-03 2D6 cells relative to parental cells [1]: up to 25 times

SMILES: CC/C(=C(\c1ccccc1)c1ccc(OCCN)cc1)c1ccccc1 [DDM-Tam, N-didesmethyl-tamoxifen]
- V max, (E)-Met E formation [8]: 0.70 pmol/mg/min
- V max, (Z)-Met E formation [8]: 5.2 pmol/mg/min
- Km [8, 12]: 20.7 µM
- Km [8, 13]: 55.1 µM

SMILES: CCC(=C(c1ccccc1)c1ccc(O)cc1)c1ccccc1 [Met E, 4-[1,2-diphenylbut-1-en-1-yl]phenol]
- inhibitory effect on the tested CYP enzymes ([10]; 5 µM, 72 h): did not act as CYP inhibitors

SMILES: CC/C(=C(\c1ccccc1)c1ccc(OCCNC)cc1)c1ccccc1 [DM-Tam, N-desmethyltamoxifen]
- V max, (E)-Met E formation [8]: 0.32 pmol/mg/min
- V max, (Z)-Met E formation [8]: 6.1 pmol/mg/min
- Km [8, 12]: 11.5 µM
- Km [8, 13]: 102 µM
- concentration in the culture medium [11]: up to 8 nM
- concentration in the culture medium [1]: ≤ 14 nM

Reference: PMC5866846 (Archives of Toxicology, 2017)
